The source made the active and inactive calls. No cut-off for these calls is given here.
Tests used:
[1] = tested on: DLD-1; assay: Induction of DNA damage in BRCA2 knockout human DLD-1 cells assessed as increase in tail intensity at 100 to 1000 nM incubated for 3 days by PI staining based fluorescence microscopic analysis; format: functional, cell-based; settings: dose 100-1000 nM, time 3.0 day
[2] = Sub-acute toxicity in Kunming mouse assessed as change UREAL level at 30 to 100 mg/kg administered via gavage once every other day for 14 days; format: organism-based; settings: in vivo, po, 336 h, dose 30-100 mg/kg, time 14 day
[3] = tested on: MDA-MB-436; assay: Induction of apoptosis in human MDA-MB-436 cells assessed as late apoptotic cells at 10 nM incubated for 3 days by Annexin V/ PI staining based flow cytometry (reference value: 6.57%); format: functional; settings: time 3 day
[4] = tested on: MDA-MB-436; assay: Inhibition of colony formation in human MDA-MB-436 cells assessed as reduction in survival rate incubated for 10 days by crystal violet staining based assay; format: functional, cell-based; settings: dose 0.1-100 nM, time 10.0 day
[5] = target: T1, Poly [ADP-ribose] polymerase 2 (Homo sapiens, UniProt Q9UGN5); assay: Inhibition of PARP2 (unknown origin) at 1 uM preincubated with compound for 10 mins followed by DNA and NAD+ addition and measured after 60 mins by chemiluminescence based envision reader analysis relative to control; settings: time 70.0 min
[6] = target: T1, Poly [ADP-ribose] polymerase 2; assay: Binding affinity to PARP2 (unknown origin) assessed as DNA trapping activity incubated for 1 hr by Envision 2105 plate reader analysis
[7] = Toxicity in female NOD/SCID mouse xenografted with human MDA-MB-436 cells assessed as histological changes in lung at 3 mg/kg, po administered once every other day for 28 days by H and E staining based analysis; format: organism-based; settings: in vivo, 672 h, time 28 day
[8] = Acute toxicity in Kunming mouse assessed as change in cellular morphology of spleen at 100 mg/kg administered once every other day via gavage for 14 days by H and E staining based analysis; format: organism-based; settings: in vivo, po, 336 h, time 14 day
[9] = tested on: MDA-MB-436; assay: Induction of apoptosis in human MDA-MB-436 cells assessed as early apoptotic cells at 100 nM incubated for 3 days by Annexin V/ PI staining based flow cytometry (reference value: 12.8%); format: functional; settings: time 3 day
[10] = tested on: MDA-MB-436; assay: Induction of cell cycle arrest in human MDA-MB-436 cells assessed as accumulation of cells at G2/M phase at 10 nM incubated for 3 days by PI staining based flow cytometric analysis (Rvb =24.88%); format: functional; settings: time 3 day
[11] = tested on: MDA-MB-436; assay: Induction of cell cycle arrest in human MDA-MB-436 cells assessed as accumulation of cells at G2/M phase at 1 nM incubated for 3 days by PI staining based flow cytometric analysis (Rvb =24.88%); format: functional; settings: time 3 day
[12] = Acute toxicity in Kunming mouse assessed as change in heart structure at 300 mg/kg administered via gavage for 14 days by H and E staining based analysis; format: organism-based; settings: in vivo, po, 336 h, time 14 day
[13] = Toxicity in female NOD/SCID mouse xenografted with human MDA-MB-436 cells assessed as histological changes in heart at 3 mg/kg, po administered once every other day for 28 days by H and E staining based analysis; format: organism-based; settings: in vivo, 672 h, time 28 day
[14] = Apparent volume of distribution in male Balb/c mouse at 1 mg/kg, po measured upto 96 hrs by LC-MS/MS analysis; format: ADME, organism-based; settings: in vivo
[15] = tested on: MDA-MB-436; assay: Antitumor activity against luciferase tagged human MDA-MB-436 cells xenografted in female NOD-SCID mouse assessed as tumor regression by measuring bioluminescence signal administered orally once a day for 34 days by bioluminescence imaging analysis; format: functional, cell-based; settings: dose 3-10 mg/kg, route po, time 34.0 day
[16] = tested on: MDA-MB-436; assay: Antitumor activity against human MDA-MB-436 cells xenografted in female NOD/SCID mouse assessed as tumor growth inhibition at 0.3 mg/kg, po administered once every other day for 28 days relative to control; format: functional; set-up: scale not given: the % may be the effect or the level left; settings: time 28 day
[17] = AUC(0 to t) in rat at 2.5 mg/kg, iv measured upto 96 hrs by LC-MS/MS analysis; format: ADME, organism-based; settings: in vivo
[18] = tested on: MDA-MB-436; assay: Antitumor activity against human MDA-MB-436 cells xenografted in female NOD/SCID mouse assessed as inhibition of tumor growth administered orally once every other day for 28 days; format: functional, cell-based; settings: dose 0.3-3 mg/kg, route po, time 28.0 day
[19] = Clearance in rat at 2.5 mg/kg, po measured upto 96 hrs by LC-MS/MS analysis; format: ADME, organism-based; settings: in vivo
[20] = Sub-acute toxicity in Kunming mouse assessed as change CK level at 30 to 100 mg/kg administered via gavage once every other day for 14 days; format: organism-based; settings: in vivo, po, 336 h, dose 30-100 mg/kg, time 14 day
[21] = Oral bioavailability in male Balb/c mouse at 1 mg/kg measured upto 96 hrs by LC-MS/MS analysis; format: ADME, organism-based; settings: in vivo
[22] = Toxicity in female NOD/SCID mouse xenografted with human MDA-MB-436 cells assessed as histological changes in liver at 3 mg/kg, po administered once every other day for 28 days by H and E staining based analysis; format: organism-based; settings: in vivo, 672 h, time 28 day
[23] = Tmax in male Balb/c mouse at 1 mg/kg, po measured upto 96 hrs by LC-MS/MS analysis; format: ADME, organism-based; settings: in vivo
[24] = Sub-acute toxicity in Kunming mouse assessed as change LDH2 level at 30 to 100 mg/kg administered via gavage once every other day for 14 days; format: organism-based; settings: in vivo, po, 336 h, dose 30-100 mg/kg, time 14 day
[25] = Toxicity in female NOD/SCID mouse xenografted with human MDA-MB-436 cells assessed as change in body weight at 0.3 to 3 mg/kg, po administered once every other day for 28 days and measured every 2 days; format: organism-based; settings: in vivo, 672 h, dose 0.3-3 mg/kg, time 28 day

T1 sequence (Q9UGN5 whole entry): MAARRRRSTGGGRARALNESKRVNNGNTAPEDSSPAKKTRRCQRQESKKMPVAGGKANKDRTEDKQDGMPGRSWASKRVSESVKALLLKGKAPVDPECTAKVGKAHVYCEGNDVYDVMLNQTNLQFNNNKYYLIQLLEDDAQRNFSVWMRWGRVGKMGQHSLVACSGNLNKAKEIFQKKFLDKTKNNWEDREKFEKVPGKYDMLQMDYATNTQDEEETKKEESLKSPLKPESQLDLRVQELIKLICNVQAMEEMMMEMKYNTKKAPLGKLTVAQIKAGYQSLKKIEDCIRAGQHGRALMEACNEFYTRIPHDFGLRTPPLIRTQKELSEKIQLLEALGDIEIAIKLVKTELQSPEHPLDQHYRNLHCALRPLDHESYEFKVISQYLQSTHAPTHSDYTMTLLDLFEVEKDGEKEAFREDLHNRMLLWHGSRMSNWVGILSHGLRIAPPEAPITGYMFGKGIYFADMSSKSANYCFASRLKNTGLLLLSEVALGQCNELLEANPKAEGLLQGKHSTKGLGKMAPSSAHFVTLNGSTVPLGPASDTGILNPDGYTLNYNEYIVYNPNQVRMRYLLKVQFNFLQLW

Structure (SMILES): CCc1cc2ncc(CN3CC=C(c4ccc(C#N)cn4)CC3)cc2[nH]c1=O
- Activity [1]: Active
- Activity [2]: Non-toxic
- Activity [3]: 9.94%
- inhibition [4]: Dose-dependent-effect
- inhibition [5]: 72.9%
- EC50 [6]: 4.33 µM
- Activity [7]: Non-toxic
- Activity [8]: Non-toxic
- Activity [9]: 21.9%
- Activity [10]: 29.58%
- Activity [11]: 28.04%
- Activity [12]: Non-toxic
- Activity [13]: Non-toxic
- Vz [14]: 0.13 L/kg
- Activity [15]: Dose-dependent-effect
- Activity [16]: 89.9%
- AUC(0-t) at 96 h [17]: 510 µg·h/mL
- Activity [18]: Dose-dependent-effect
- CL/F [19]: 0.167 mL/min/kg
- Activity [20]: Non-toxic
- bioavailability [21]: 87.7%
- Activity [22]: Non-toxic
- Tmax [23]: 8.33 h
- Activity [24]: Non-toxic
- Activity [25]: Non-toxic

Source: ChEMBL document CHEMBL6096703 (J Med Chem, 2025)
